# Measurements: patent publication US20230158042A1, “COMBINATION CANCER THERAPY WITH PENTAAZA MACROCYCLIC RING COMPLEX AND HORMONE THERAPY AGENT” (Galera Labs, LLC, priority 2020, published 2023)
# What was measured:
# [1] = tested on: LNCaP-MnSOD^K68Q cells; assay: Clonogenic cell survival in LNCaP-MnSOD^K68Q cells; type: cell-based; settings: GC4419 20 µM for 5 days, treated with ENZ
# Protocol: In FIG. 20a, clonogenic cell survival experiments were done in LNCaP-ENZR cells infected with lenti-MnSOD^K68R or lenti-MnSOD^K68Q, in the presence of ENZ (10 µM). In FIG. 20b, clonogenic survival assays were done in LNCaP cells infected with lenti-MnSOD^WT, lenti-MnSOD^K68R, and lenti-MnSOD^K68Q, and selected with neomycin, and placed in 10 µM of ENZ for 72 hr. Error bars ± 1 SEM. Experiments were done in triplicate. **p < 0.01.
# (§1) FIGS. 21a-21b are a chart and graph showing that pharmacologically mimicking the activity of deacetylated lysine 68 MnSOD with a manganese pentaazamacrocyclic dismutase mimetic both inhibited the growth of LNCaP-ENZR tumors and reversed the enzalutamide resistance in LNCaP-ENZR / LNCaP—MnSOD^K68Q cells and tumors. In FIG. 21a, clonogenic cell survival experiments were performed in LNCaP-ENZR (left two bars) and LNCaP—MnSOD^K68Q (right two bars) treated with ENZ, with or without GC4419 (20 µM) for 5 days. […] Tumor volumes were measured three times a week for 46 days. For each group n=10. Error bars ± 1 SEM. All experiments done in triplicate. **p < 0.01.
# [2] = tested on: T47D-MnSOD^K68Q cells; assay: Ki-67 staining in T47D-MnSOD^K68Q cells; type: cell-based, human; settings: 5 µM GC4419 for 5 days
# Protocol: MCF7-MnSOD^K68Q cells (in FIGS. 17a and 17b) and T47D-MnSOD^K68Q cells (in FIGS. 17c and 17d) were treated with 5 µM GC4419 and/or 1 µM 4-hydroxy-Tam for 5 days, and then stained for Ki-67 as well as DAPI. Quantifications of average Ki-67 intensity are shown in the bar graphs. In FIG. 17e, MCF7 and MCF7-HTR cells were implanted into both hind limbs of nude mice and tumor volumes were measured every 3 days for 6 weeks and the number of tumors that successfully implanted versus the total number of mice infected with MCF7 and MCF7-HTR as well as the average tumor weight and tumor size are shown. Representative images are shown. All experiments were done in triplicate. Error bars represent ± 1 SEM. ***p < 0.001.
# (§2) Cells seeded on glass coverslips were fixed in 4% paraformaldehyde and then blocked with 1% BSA and 10% normal goat serum in 1x PBS. Cells were incubated with anti-Ki-67 (c-bioscience) antibody in 1x PBS followed by incubation with goat anti-rabbit IgG conjugated with Alexa Fluor 647 (Invitrogen) in 1x PBS with 5% goat serum. Cells were washed in 1x PBS, mounted, and imaged with a fluorescence microscope. Fluorescence images were captured using a laser scanning confocal microscope (Nikon A1 R). The paired images in all the figures were collected at the same gain and offset settings. Post-collection processing was applied uniformly to all paired images.
# [3] = tested on: LNCaP-MnSOD^K68Q xenografts; assay: LNCaP-MnSOD^K68Q hind limb xenograft growth in nude mice; type: in vivo; settings: GC4419 10 mg/kg, once per week; tumor volumes for 46 days
# Protocol: as §1
# [4] = tested on: MCF-7-MnSOD^K68Q cells; assay: Clonogenic cell survival after 5 Gy ionizing radiation in MCF-7-MnSOD^K68Q cells; type: cell-based, human; settings: 5 µM GC4419 for 5 days
# Protocol: FIGS. 30a-30b are plots showing that mimicking acetylation of MnSOD—K68 with MnSOD^K68Q expression induces ionizing radiation resistance (IRR) in breast cancer cells, and that pharmacologically mimicking the activity of deacetylated lysine 68 MnSOD with a manganese pentaazamacrocyclic dismutase mimetic reverses this IRR. […] All experiments were done in triplicate. Error bars represent ± 1 SEM. ***p < 0.001. Data were analyzed by a t-test.
# [5] = tested on: MCF7-Cispl-R cells; assay: Cell ROS levels in cisplatin-resistant MCF7 cells; type: cell-based, human; settings: data not shown
# Protocol: FIGS. 27a-27c are an image and graphs showing that MnSOD—AcK68/ROS/HIF2α dysregulation directs PanR (multi-therapy resistance to cancer therapeutics). […] In FIG. 27b, ROS was measured in MCF7-Cispl-R cells, compared with MCF7 cells, using an Amplex Red assay. In FIG. 27c, MCF7 and MCF7-MnSOD^K68Q cells were measured by clonogenic cell survival assays, without and with cisplatin exposure, and infected with scrambled (C) or HIF2α shRNA. All experiments were done in triplicate. Error bars are ± 1 SEM. * p < 0.05.
# [6] = tested on: MCF7-Cispl-R cells; assay: SOX2 and OCT4 levels in cisplatin-resistant MCF7 cells; type: cell-based, human; settings: data not shown
# [7] = tested on: Tam resistant as well as loss of Sirt3 tumor cell lines; assay: In vitro Tam resistance in Tam resistant and loss of Sirt3 tumor cell lines; type: cell-based; settings: data not shown
# [8] = tested on: T47D-HTR cells; assay: Ki-67 staining in T47D-HTR cells; type: cell-based, human; settings: 5 µM GC4419 for 5 days
# Text: With respect to FIG. 16a, the data from FIG. 7i, where MCF7-HTR cells were stained for Ki-67, as well as DAPI, were counted with ImageJ and quantified for average Ki-67 intensity as shown in the bar graph. With respect to FIGS. 16b and 16c, T47D and T47D-HTR cells were stained for Ki-67 as well as DAPI, and particles in the nucleus were counted with ImageJ and quantified for average Ki-67 intensity as shown in the bar graph. In FIGS. 16d and 16e, MCF7-HTR cells, and in FIGS. 16f and 16g, T47D-HTR cells, were treated with 5 µM GC4419 and/or 1 µM 4-hydroxy-Tam for 5 days, and then stained for Ki-67 as well as DAPI. Quantifications of average Ki-67 intensity are shown in the bar graphs. All experiments were done in triplicate. Error bars represent ± 1 SEM. ***p < 0.001. Representative images are shown.
# as §2, with “Post-collection processing was applied uniformly to all paired images.” left out
smiles,measurement,setting,value
[Cl][Mn][Cl].c1cc2nc(c1)CN[C@H]1CCCC[C@@H]1NCCN[C@H]1CCCC[C@@H]1NC2 [GC4419],ENZR phenotype (clonogenic cell survival),[1],converted to a sensitive phenotype
same,Ki-67 IHC staining,[2],reversed the increase in Ki-67 IHC staining
same,xenograft growth,[3],significant inhibition of xenograft growth
same,"ionizing radiation resistance (IRR) phenotype, clonogenic cell survival",[4],reversed the IRR phenotype
same,cell ROS levels,[5],decreased cell ROS levels
same,SOX2 and OCT4 levels,[6],decreased SOX2 and OCT4 levels
same,Tam resistance,[7],reverses Tam resistance
same,Ki-67 IHC staining,[8],decreased Ki-67 IHC staining
